In series [1] the target is cereblon (CRBN) (Homo sapiens, UniProt Q96SW2). The series can be described thus: In vitro CRBN binding assay (AlphaScreen, competitive inhibition of the PROTAC assay). In general terms: In Alpha technology, singlet oxygen from a donor bead excites a nearby acceptor bead.
Series [2] is described as follows: Cytotoxicity evaluation, CCK analysis kit. Particulars: human, MM.1S (CRL-2974) multiple myeloma cells; MM.1S cells, treated for 3 days. Type of series: cell-based. Here is the method: The MM.1S (CRL-2974) cell line, which is a human multiple myeloma cell line, was purchased from the American Type Culture Collection (ATCC, Manassas, VA, USA) and used, and incubated using RPMI1640 medium (Corning, MD, USA) supplemented with 10% fatal bovine serum (Corning, MD, USA), 100 U/ml of penicillin (Corning, MD, USA), and 100 μg/ml of streptomycin (Corning, MD, USA) at 37° C. in a 5% CO2 incubator for 24 hours.

Series [3] deals with SALL4. The series is described as follows: SALL4 degradation by immunoblotting in Tera-1 cells. The note with it: 0.000128-10 μM, 4 hours. Type of series: cell-based, human. From the text: It has been reported that a cereblon (CRBN)-binding therapeutic such as a thalidomide-based compound can cause severe congenital abnormalities such as forelimb shortening or brachydactyly, which are closely associated with the decomposition of SALL4.
To this end, the Tera-1 cell line (HTB-105), which is a human embryonic carcinoma cell line, was purchased from the American Type Culture Collection (ATCC, Manassas, VA, USA) and used, and then cultured using a DMEM medium (Corning, MD, USA) supplemented with 10% fetal bovine serum (Corning, MD, USA), 100 U/ml of penicillin (Corning, MD, USA), and 100 μg/ml streptomycin (Corning, MD, USA) at 37° C. in a 5% CO2 incubator.
The cells were disrupted by adding a RIPA buffer containing a protease inhibitor cocktail (Thermo Fisher Scientific), and centrifuged at 14,000 rpm for 15 minutes at 4° C. to obtain a cell extract. Equal amounts of the cell extract were loaded, and proteins were separated by SDS-PAGE and then transferred to a PVDF membrane. The protein-transferred membrane was blocked using skim milk, incubated with a primary antibody for 3 hours at room temperature, and then incubated with an HRP-conjugated secondary antibody for 1 hour at room temperature. The resulting product was washed with TBS-T three times between steps. […]
In general terms: Immunoblotting shows a protein as a band on a membrane.

Series [4] relates to BV-2 cells. The series can be described thus: Nitrite content in culture solution of LPS-stimulated BV-2 cells (Griess Reagent System). Type of series: cell-based, mouse. Particulars: BV-2 cells, 3.33, 10 or 30 μM, 1 μg/mL LPS, 24 hours. The method, then: To further confirm the oxidative stress suppression effect, the content of nitrite released due to an inflammatory response and the expression levels of iNOS, which is an enzyme that produces nitric oxide, and COX-2, which is cyclooxygenase-2, were determined in mouse microglial cells (BV-2, ATCC, Manassas, VA, USA).
To determine the content of nitrite and the protein expression levels of iNOS and COX-2, BV-2 was seeded in a 12-well plate (Corning, MD, USA) at 1.5×10^5 cells/well, and cultured using a DMEM medium (Corning, MD, USA) containing 10% fetal bovine serum (Corning, MD, USA) and 100 U/ml of penicillin/streptomycin (Corning, MD, USA) at 37° C. in a 5% CO2 incubator for one day for stabilization. […] 1 μg/mL of LPS (Sigma, USA) was added to all experimental groups excluding the non-inflammation-induced group and allowed to react at 37° C. in a 5% CO2 incubator for 24 hours.
The cell culture solution was collected to measure the content of nitrite, and centrifuged at 3,000 rpm for 5 minutes to obtain a supernatant. The concentration of nitrite in the cell culture solution was measured using a microplate reader (NEO2MALPHAB Synergy Neo-2, BioTek, CA, US) according to the manual of the Griess Reagent System (#G2930, Promega, WI, USA).
For orientation: Griess reagent forms a coloured azo dye with nitrite.

Series [5] can be described thus: Stability of 3-MP in human plasma (UPLC-MS). Type of series: in vitro ADME. Here is the method:
To plot a standard calibration curve, the stock sample was diluted by half with acetonitrile from 125 to 0.39 μg/mL to prepare standard solutions for a total of 10 samples at different concentrations, and the calibration curve was plotted as shown in FIG. 6A.
For the experiment of verifying stability in plasma, 10 μL of the test drug prepared at a concentration of 100 μg/mL was added to 90 μL of human plasma and mixed for 30 seconds, and then immediately after the addition, the plasma-mixed test drug was incubated for 15, 30, 60, or 120 minutes to prepare samples. Afterward, 400 μL of 100% ethyl acetate was added to each sample and extracted using a vortex mixture for 1 minute. […] Initially, the mobile phase B was increased from 5% to 95% until 9 minutes and analyzed, the mobile phase B was maintained 95% until 12 minutes, and then the mobile phase B was lowered to 5% and equilibrated, and used in the subsequent analysis. the flow rate of the mobile phase was 0.3 mL/min, the sample injection volume was 2 μL, and the mass spectrometer was operated in the ESI-positive mode. The spray voltage was set to 3.5 kV, and the flow rates of the nitrogen sheath gas, auxiliary gas, and sweep gas were analyzed as 50, 10, and 1 (arbitrary units), respectively. […]

In series [6] the test system is mouse model with Parkinson's disease induced by MPTP administration. The series can be described thus: Pillar test in MPTP-induced Parkinson's disease mouse model. Type of series: in vivo. Particulars: MPTP mice, oral. Here is the method: To cause the disease, mice in the G2, G3, G4, and G5 groups were administered MPTP dissolved in saline via an intraperitoneal route at 2-hour intervals four times a day (20 mg/kg/time), while the G1 group received the same amount of saline.
Using a wooden pillar (length: 80 cm, diameter: 0.8˜1 cm) placed vertically on the cage floor, mice were trained to turn around from the top of the pillar in the opposite direction and descend to the bottom three times a day on days 2-3 of the test. On day 4 of the test, the same test was performed three times, and the time it took to change direction from the top and descend.

Turning to `Nc1cccc2c1C(=S)N(C1CCC(=O)NC1=O)C2=O` (centres unmarked) [3-MP, 3-thiopomalidomide], the IC50 (commonly the concentration at which inhibition is half-maximal) in series [1] turned out to be 190 nM. The IC50 at 3 days in series [2] is no less than 50 µM. In series [3], the “decomposition of SALL4” value is “less decomposition of SALL4 than pomalidomide”. Besides, the “amount of nitrite released by LPS” value in series [4] was “effectively reduced the amount of the residual nitrite released by LPS”. In series [5] (0 to 120 minutes), the “stability in plasma over time” value is reported as “maintained without significant changes”. The molecule also had a plasma level in series [5] (immediately after plasma addition (0 minutes)) of 80 µg/mL. The pillar descent time entry in series [6] (90 mg/kg) is listed as “recovered to a level similar to that of the vehicle administration group”; in series [6] (all doses (10, 30, 90 mg/kg/day), versus MPTP group), “reduced to a statistically significant level”.

The values above are taken from patent publication US20250161286A1 (AEVIS BIO, INC., priority 2022, published 2025).
